Reference: article PMC7280531, “A PROTAC peptide induces durable β-catenin degradation and suppresses Wnt-dependent intestinal cancer” (Cell Discovery, 2020)
Where a SMILES comes first, the peptide text is derived from it. Bridges are numbered along the chain shown (N, C = ends). [ ]: non-standard residue; d: D form. S5 = C=CCCC[C@](C)(N)C(=O)O; Ahx = NCCCCCC(=O)O

Legend:
[1] = test system: CRC patient-derived organoids; assay: CRC patient-derived tumor organoid culture; assay type: cell-based, human; settings: 10 μM
Method: Fig. 6 xStAx-VHLL restrains the survival of CRC patient-derived organoids. a Twelve CRC patient-derived organoids, numbered from C-01 to C-12, were treated with DMSO and 10 μM xStAx-VHLL for 4 days. The organoids survival rate of each group was calculated at day 4. b The C-08 organoids were treated with DMSO and 10 μM xStAx-VHLL for 4 days. The trypan blue staining at day 4 indicated the dead organoids. Scale bar = 100 μm. c The percentage of survived C-08 organoids was calculated each day after xStAx-VHLL treatment. d The C-08 organoids were treated with DMSO or 10 μM xStAx-VHLL for 48 h and then harvested for immunoblotting. Relative β-catenin protein levels were quantified. e The C-08 organoids were treated with DMSO and 10 μM xStAx-VHLL for 4 days. Scale bar = 100 μm. f The percentage of survived organoids in C-11 group was calculated each day after xStAx-VHLL treatment. g The C-11 organoids were treated with DMSO or 10 μM xStAx-VHLL for 48 h and then harvested for immunoblotting. Relative β-catenin protein levels were quantified. The relative band intensity was quantified with ImageJ and normalized to GAPDH levels.
CRC patient tumor tissues were washed with cold HBSS. After removing the muscle tissue, the epithelial tumor tissues were cut into small pieces and vigorously suspended. Then the tissue suspension was centrifuged (3 min at 300–400 g) and tumor fraction was enriched at the bottom. Next, the tumor fraction was embedded in Matrigel (BD Biosciences) and seeded on 24-well plates with the culture medium, which includes Advanced DMEM/F12 supplemented with Penicillin/Streptomycin, GlutaMAX-I, N2, B27, N-acetylcysteine (Sigma-Aldrich), CHIR-99021 (5 μM, Selleck), A-83–01 (0.5 μM, Cayman), SB202190 (10 μM, Selleck), gastrin (1 nM, Tocris), Y27632 (10 μM, Enzo), PEG2 (2.5 μM, Selleck), nicotinamide (10 mM, Sigma-Aldrich), EGF (50 ng/mL, Invitrogen), Noggin (100 ng/mL, R&D) and R-spondin1 (500 ng/mL).

Axin2 expression = assay: Axin2^LacZ Wnt reporter mice, β-galactosidase staining of small intestine; assay type: in vivo; settings: i.p. injection, 7 doses/14 days
Method: The small intestines were isolated from Axin2^LacZ reporter mice, washed with PBS and fixed in 4 % paraformaldehyde for 1 h at room temperature, then cut into small pieces (1 cm). The tissue pieces were stained with in situ β-galactosidase staining kit (Beyotime) according to the manufacturer’s instruction. The stained tissues were transferred to tissue cassettes and paraffin blocks prepared using standard methods. The tissues were sliced into 5 μm thick sections with paraffin slicing machine (RM2235, Leica) and subjected to hematoxylin staining.

intestinal tumors = assay: Intestinal tumors in APC^min/+ mice
Method: Because APC^min/+ mice can develop intestinal tumors around 10 weeks-old[26], the 11 weeks-old APC^min/+ mice were intraperitoneally injected with 30 mg/kg vehicle DMSO or peptides at every other day for 14 days. Then the mice were sacrificed for analysis of intestinal tumors.
Tumor number of the whole intestinal tract was analyzed in the lower panel.

LoVo cells [2] = assay: Cell proliferation assay (CCK-8), LoVo cells; assay type: cell-based; settings: 6 days
Method: Equal number of cells (8000–10,000 cells) were seeded in the 24-well plates and then subjected to different treatments. The cell numbers were counted every 24 h with the CCK-8 cell counting kit (Dojindo Molecular Technologies) according to manufacturer’s instructions.

SW480 cells = assay: Cell permeability of FITC-labeled peptides in SW480 cells (confocal microscopy); assay type: cell-based
Method: After elongation of the peptide and metathesis reaction were conducted on the resin according to a general protocol. Then, the Fmoc group was removed and the resin was treated with Fmoc-Ahx-OH (4 eq.), DIC (4 eq.), Oxyma pure (4 eq.) and NMP (6 mL) for 15 min at 60 °C. The Fmoc group was removed and the resin was treated with fluorescein isothiocyanate (FITC, 2 eq.) and DIPEA (2 eq.) in DMF (6 mL) at room temperature overnight. The biotinylated labeling was carried out as routine amino acid. Cleavage was conducted following a general protocol and crude peptide was purified by RP- HPLC to give the final products.
Supplementary Fig. S3. Cell permeability of FITC-labeled peptides in SW480 […]
(a) The uptake of FITC-labeled peptides into SW480 was examined after incubation for 6 h by confocal microscopy. The nuclei were counter-stained with DAPI. Scale bar = 100 μm. (b) FITC-xStAx and FITC-xStAx-VHLL were added to SW480 cells for 6 h, and then washed out with the growth medium. After 24 h and 48 h, the cells were counter-stained with DAPI and examined by confocal microscopy. Scale bar = 100 […]
(1 picture or pasted object on this page, not shown here)

LoVo cells [3] = assay: Tumor formation in nude mice from pretreated LoVo cells; assay type: in vivo, BALB/C nude mice
Method: Next, to examine the influence of the peptides on tumor formation, 3 × 10^6 LoVo cells were pretreated with each peptide at 50 μM for 24 h, followed by subcutaneous injection into BALB/C nude mice. After 3 weeks when tumors were visible, the mice were sacrificed for comparison of subcutaneous tumors among different groups.
LoVo cells cultured were pretreated with DMSO pr peptides (50 μM) for 24 h. Then the cells were digested with trypsin and centrifuge (3 min at 300–400 g). Cell pellets were washed with cold PBS three times and the cell number was counted. The BALB/C nude mice were subcutaneously injected with 3 × 10^6 cells. Three weeks later, the nude mice were sacrificed and dissected for tumors. Tumor weight was quantified.

## CC[C@H](C)[C@@H]1NC(=O)[C@@](C)(NC(=O)[C@H](CCCNC(=N)N)NC(=O)[C@@H]2CCCN2C(=O)[C@H](Cc2c[nH]c3ccccc23)NC(=O)[C@H](CCCNC(=N)N)NC(=O)[C@H](CCCNC(=N)N)NC(C)=O)CCCC=CCCC[C@@](C)(C(=O)N[C@@H](Cc2c[nH]cn2)C(=O)N[C@H](C(=O)N[C@@H](CCCNC(=N)N)C(=O)N[C@@H](CCCNC(=N)N)C(=O)N[C@H](C(=O)N[C@@H](Cc2c[nH]c3ccccc23)C(=O)N[C@@H](CCCNC(=N)N)C(=O)NCCCCCC(=O)N[C@@H](C)C(=O)N[C@@H](CC(C)C)C(=O)N[C@@H](C)C(=O)N2CCC[C@H]2C(=O)N[C@@H](Cc2ccc(O)cc2)C(=O)N[C@H](C(=O)N2CCC[C@H]2C(N)=O)[C@@H](C)CC)C(C)C)C(C)C)NC(=O)[C@H](CC(=O)O)NC(=O)[C@H](CC(C)C)NC1=O [xStAx-VHLL] (Ac-RRWPR[S5]ILD[S5]HVRRVWR[Ahx]ALAPYIP-NH2; staple 6-10; N-terminus and C-terminus assumed)
[1]; 2 days (48 h), immunoblot
  β-catenin protein level in C-08 organoids: reduced the β-catenin protein level
[1]; 4 days
  survival of C-11 organoids: insensitive to xStAx-VHLL
[1]; 4 days, 12 CRC samples C-01 to C-12
  patient-derived organoids whose survival was potently inhibited: 11/12
[1]; 4 days, compared with DMSO control
  survival of C-08 and C-05 organoids: strong inhibition function
Axin2 expression
  Axin2 expression (β-galactosidase staining): significantly blocked Axin2 expression
Intestinal tumors; 30 mg/kg i.p. 7 times, immunoblot, compared with the vehicle group
  active β-catenin protein level in small intestine: also decreased
Intestinal tumors; 11 weeks-old mice, 30 mg/kg i.p. every other day for 14 days (7 times), vs day 0 or DMSO
  intestinal tumor number: dramatically reduced tumor number
LoVo cells [2]; 50 μM peptides, cell number counted each day
  proliferation of LoVo cells: significantly attenuated the proliferation
LoVo cells [2]; 1 × 10^4 cells, 10 μM MSAB or 50 μM xStAx-VHLL
  proliferation of LoVo cells, MSAB versus xStAx-VHLL: hampered by xStAx-VHLL
SW480 cells; 6 h, washed out with growth medium, examined after 24 h and 48 h
  retention in the cell after wash-out: retained in the cell much longer
SW480 cells; 6 h incubation
  membrane permeability / uptake into cells: could efficiently enter into a cell
LoVo cells [3]; 3 × 10^6 LoVo cells pretreated with 50 μM peptide for 24 h, s.c. injection, 3 weeks, n = 10 mice per group
  subcutaneous tumor size and weight: significantly smaller in size and weight
LoVo cells [3]; tumors from pretreated LoVo cells, immunoblot, compared with other groups
  β-catenin protein level in tumor extracts: apparently decreased
LoVo cells [3]; tumors from pretreated LoVo cells, qPCR
  Wnt target genes Axin2, Cyclin D1 and Myc in tumors: also decreased
